Experimental data as given in ChEMBL document CHEMBL1201862, “PubChem BioAssay data set” (2004).
The source made the active and inactive calls.

Tests used:
Mu-type opioid receptor = Mu-type opioid receptor (Homo sapiens, UniProt P35372); type: functional, cell-based;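 further: U2OS cells with beta-arrestin recruitment to OPRM1 by beta-gal complementation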
[1] = molecular target: 5-hydroxytryptamine receptor 2A (Mus musculus, UniProt P35363); type: functional, cell-based;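 further: CHO-K1 cells with tagged receptor and beta-arrestin; agonist potency measured as compound-induced activation of the receptor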
[2] = molecular target: T1, Corticotropin-releasing factor receptor 2/Corticotropin-releasing factor-binding protein (Homo sapiens, UniProt P24387+Q13324); assay: activators of CRF receptor 2 with binding protein – uHTS hits, confirmation (AID 602473); type: functional; conditions: read-out: EC50_Mean
T1 sequence (Q13324 whole entry): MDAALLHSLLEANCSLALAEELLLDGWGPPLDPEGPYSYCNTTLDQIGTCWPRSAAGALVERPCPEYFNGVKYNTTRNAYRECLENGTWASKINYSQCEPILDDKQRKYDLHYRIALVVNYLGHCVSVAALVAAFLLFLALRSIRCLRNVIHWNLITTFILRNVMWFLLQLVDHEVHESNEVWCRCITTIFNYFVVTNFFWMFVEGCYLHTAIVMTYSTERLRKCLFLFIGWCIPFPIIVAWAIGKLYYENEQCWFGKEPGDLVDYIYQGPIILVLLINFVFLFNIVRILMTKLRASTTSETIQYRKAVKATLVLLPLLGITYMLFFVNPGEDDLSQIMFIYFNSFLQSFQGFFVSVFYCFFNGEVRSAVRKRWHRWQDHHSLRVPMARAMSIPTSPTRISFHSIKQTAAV
T1 sequence (P24387 whole entry): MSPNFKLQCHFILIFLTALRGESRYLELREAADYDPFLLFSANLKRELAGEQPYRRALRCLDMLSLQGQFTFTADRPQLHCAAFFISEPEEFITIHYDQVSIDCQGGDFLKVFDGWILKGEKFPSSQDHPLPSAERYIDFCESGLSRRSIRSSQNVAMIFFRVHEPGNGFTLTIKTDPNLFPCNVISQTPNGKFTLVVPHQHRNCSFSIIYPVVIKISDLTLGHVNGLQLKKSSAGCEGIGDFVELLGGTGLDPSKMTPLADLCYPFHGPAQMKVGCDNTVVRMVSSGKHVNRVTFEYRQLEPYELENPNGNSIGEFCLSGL

[3] = molecular target: T2, Small ubiquitin-related modifier 1 (Homo sapiens, UniProt P63165); assay: SUMO1 protein interaction blockers, potency – biochemical, fluorescence polarization, uHTS hits, dose response (AID 624382); type: functional; conditions: read-out: IC50_Mean
[4] = molecular target: T2, Small ubiquitin-related modifier 1; assay: SUMO1 protein-protein binding blockers, potency – biochemical, FRET, dose response (AID 624383); type: functional; conditions: read-out: IC50_Mean
Cytochrome P450 2C19 = Cytochrome P450 2C19 (Homo sapiens, UniProt P33261); assay: Cytochrome panel assay with activity outcomes. Panel member name: p450-cyp2c19 Compounds with AC50 equal or less than 10 uM are considered active; type: functional; conditions: read-out: AC50
[5] = molecular target: SWI/SNF-related matrix-associated actin-dependent regulator of chromatin subfamily A member 2 (Homo sapiens, UniProt P51531); assay: Luminescence-based cell-based high throughput dose response assay to identify activators of the function of SWI/SNF related, matrix associated, actin dependent regulator of chromatin, subfamily a, member 2 (SMARCA2, BRM).; type: functional
[6] = Counterscreen for activators of the function of SWI/SNF related, matrix associated, actin dependent regulator of chromatin, subfamily a, member 2 (SMARCA2, BRM): Luminescence-based cell-based high throughput dose response assay to identify non-selective compounds using the VP16 reporter assay.; type: functional
[7] = molecular target: T3, Heat shock factor protein 1 (Mus musculus, UniProt P38532); assay: enhancement of HSF1-driven luciferase signal – cell-based, NIH3T3, luminescence, dose retest, confirmation (AID 435004); type: functional;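 further: stress induced by proteasome inhibitor MG132 added 30 min after compound; luciferase reporter driven by HSF1 response element in NIH3T3 cells; actives raise luminescence as potentiators of the MG132 stress response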
T3 sequence (P38532 whole entry): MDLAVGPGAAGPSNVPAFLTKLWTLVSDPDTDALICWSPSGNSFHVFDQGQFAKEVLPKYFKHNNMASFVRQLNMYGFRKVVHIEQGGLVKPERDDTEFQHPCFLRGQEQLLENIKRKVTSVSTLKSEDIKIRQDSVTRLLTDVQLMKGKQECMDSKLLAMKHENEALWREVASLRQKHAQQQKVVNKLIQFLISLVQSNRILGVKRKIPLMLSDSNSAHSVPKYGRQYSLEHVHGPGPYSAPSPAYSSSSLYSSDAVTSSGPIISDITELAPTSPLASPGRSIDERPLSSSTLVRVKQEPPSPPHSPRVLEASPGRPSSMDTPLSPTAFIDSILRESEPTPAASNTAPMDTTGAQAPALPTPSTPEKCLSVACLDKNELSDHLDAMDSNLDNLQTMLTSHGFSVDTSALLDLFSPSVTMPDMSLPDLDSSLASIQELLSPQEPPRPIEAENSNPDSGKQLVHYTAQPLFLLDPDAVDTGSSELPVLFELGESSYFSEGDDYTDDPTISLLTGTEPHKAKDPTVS

fMet-Leu-Phe receptor = fMet-Leu-Phe receptor (Homo sapiens, UniProt P21462); assay: formyl peptide receptor binders – dose response (AID 519); type: functional
[8] = reduction of Shn3 3'UTR-driven luciferase in osteoblasts – cell-based, Clone20 osteoblasts, firefly luciferase, cherry-picked, dose response (AID 624132); type: functional;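 further: firefly luciferase luminescence from reporter carrying the Shn3 3'UTR in osteoblasts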
[9] = loss of viability in HepG2 cells – cell-based, CellTiter-Glo, cherry-picked, cytotoxicity control for Shn3 inhibitor project, dose response (AID 624134); type: functional
[10] = non-specific 3'UTR reporter inhibition in Clone20-Shn3RL – cell-based, Renilla luciferase, cherry-picked, counter-screen for Shn3 inhibitor project, dose response (AID 624133); type: functional
[11] = Shn3 3'UTR reporter signal decrease – cell-based, Clone20 osteoblasts, firefly luciferase, cherry-pick, set 2, Schnurri-3 inhibitor project, dose response (AID 720490); type: functional;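 further: actives lower the luminescence signal as inhibitors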
Caspase-6 = Caspase-6 (Homo sapiens, UniProt P55212); assay: inhibition of CASP6 peptide cleavage – biochemical, VEID-R110 fluorescence, cherry-pick, dose response (AID 720632)
Major prion protein = Major prion protein (Homo sapiens, UniProt P04156); type: functional, cell-based
Albumin = Albumin (Bos taurus, UniProt P02769); assay: Counterscreen for inhibitors of T-cell receptor (TCR)-CD3 interaction: Fluorescence-based biochemical high throughput dose response assay to identify inhibitors of T-cell receptor (TCR)-CD3 interaction using a TAMRA-labeled BSA probe.; type: functional
A549 = assay: viability loss in A549 cells – cell-based, plate reader, cherry-pick samples, cytotoxicity control, dose response (AID 687028); type: functional; conditions: Homo sapiens
Large T antigen = Large T antigen (Simian virus 40, UniProt P03070); type: functional, Betapolyomavirus macacae;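 further: Confirmatory-stage PubChem screen for compounds that inhibit SV40 T antigen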
[12] = molecular target: FAD-linked sulfhydryl oxidase ALR (Homo sapiens, UniProt P55789); assay: ALR-catalysed DTT oxidation blockers – biochemical, H2O2 detection, luminescence, cherry-pick, dose response (AID 493248)
[13] = molecular target: T4, Rac GTPase-activating protein 1 (Homo sapiens, UniProt Q9H0H5); assay: blockers of MgcRacGAP-driven Rac1 GTP hydrolysis – biochemical, ADP Hunter fluorescence, primary and confirmatory, confirmation (AID 624330); type: functional
T4 sequence (Q9H0H5 whole entry): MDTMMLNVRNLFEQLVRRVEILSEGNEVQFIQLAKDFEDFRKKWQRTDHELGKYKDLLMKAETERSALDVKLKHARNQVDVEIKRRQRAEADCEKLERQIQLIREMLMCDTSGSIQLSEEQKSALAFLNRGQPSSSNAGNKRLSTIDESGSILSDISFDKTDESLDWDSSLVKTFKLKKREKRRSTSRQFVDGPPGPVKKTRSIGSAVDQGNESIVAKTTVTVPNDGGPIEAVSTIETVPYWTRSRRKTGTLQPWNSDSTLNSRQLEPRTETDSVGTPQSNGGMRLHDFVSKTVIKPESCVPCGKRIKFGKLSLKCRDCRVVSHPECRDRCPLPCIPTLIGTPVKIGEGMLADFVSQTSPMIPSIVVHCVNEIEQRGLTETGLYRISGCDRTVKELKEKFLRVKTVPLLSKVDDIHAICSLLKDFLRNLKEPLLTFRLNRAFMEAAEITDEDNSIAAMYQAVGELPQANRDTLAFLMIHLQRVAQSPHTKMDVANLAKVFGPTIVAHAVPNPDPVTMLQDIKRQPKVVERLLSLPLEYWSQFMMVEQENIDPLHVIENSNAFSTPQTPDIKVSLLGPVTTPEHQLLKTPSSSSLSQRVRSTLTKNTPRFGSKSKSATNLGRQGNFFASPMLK

Paired box protein Pax-8 = Paired box protein Pax-8 (Homo sapiens, UniProt Q06710); assay: PAX8 transcriptional activity inhibition in RMG-I – RMG-I cells, luciferase, cherry-pick, dose response (AID 687027); type: functional, cell-based;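 further: luciferase reporter driven by Pax8 target thyroperoxidase promoter measured by SteadyGlo luminescence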
[14] = IGROV1 cell killing – plate reader, dry powder samples, PAX8 inhibitor project, dose response (AID 743043); type: functional, cell-based; conditions: IGROV-1
[15] = cytotoxicity in HEK293 background cells – cell-based, dry powder, set 2, counter-screen for EBV LMP1 inhibitor project, dose response (AID 624374); type: functional
[16] = MITF Orthogonal Assay: SK-MEL-5 CTG Assay Measured in Cell-Based System Using Plate Reader - 2084-02_Inhibitor_Dose_DryPowder_Activity_Set7.; type: functional
[17] = MITF: Counter assay: A375 proliferation Measured in Cell-Based System Using Plate Reader - 2084-03_Inhibitor_Dose_DryPowder_Activity_Set8.; type: functional; conditions: A-375
[18] = inhibitors of TRPM1-promoter reporter in SK-MEL-5 – cell-based, luciferase, dry powder, set 8, MITF inhibitor project, dose response (AID 624430); type: functional
[19] = general mammalian cell viability loss – inhibitor set, cherry-pick, set 2, cytotoxicity control for miR-122 modulator project, dose response (AID 720697); type: functional, cell-based
[20] = general mammalian cell viability loss – activator set, cherry-pick, cytotoxicity control for miR-122 modulator project, dose response (AID 720690); type: functional, cell-based;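 further: HEK293T human cells scored for general mammalian cytotoxicity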

## Cc1ccsc1CN1CCN(c2ccccn2)CC1
Mu-type opioid receptor
  EC50: 92.5 µM (inactive)
[1]
  EC50: 0.282 µM (active)

## COC(=O)c1ccc2c(c1)C(=O)/C(=C/c1ccc(O)cc1)O2
[2]
  EC50: > 53 µM (inactive)
[3]
  IC50: > 66.6 µM (inactive)
[4]
  IC50: 7.4 µM (active)

## Cc1cccc(NC(=O)c2ccc([N+](=O)[O-])o2)n1
Cytochrome P450 2C19
  AC50: 20 µM (inconclusive)
[5]
  EC50: > 91.1 µM (inactive)
[6]
  EC50: > 91.1 µM (inactive)

## CC(CCc1ccccc1)NC(=O)CN1CCc2ccccc2C1 (centres undefined)
[7]
  EC50: > 260 µM (inactive)
Mu-type opioid receptor
  EC50: 92.5 µM (inactive)
[1]
  EC50: 76.1 µM (inactive)

## COc1ccc(NC(=O)C2C(=O)NC3(C)CC2c2ccccc2O3)cc1 (centres undefined)
fMet-Leu-Phe receptor
  Ki: > 66.7 µM (inactive)

## Cc1ccccc1OCCOC(=O)c1cc(S(=O)(=O)N2CCCCC2)ccc1N1CCOCC1
[8]
  AC50: 3.79 µM (active)
[9]
  AC50: > 70 µM (inactive)
[10]
  AC50: > 70 µM (inactive)
[11]
  AC50: 4.28 µM (active)

## COc1cc(C2C(C(=O)c3ccc(C)o3)=C(O)C(=O)N2CCc2ccccc2)ccc1O (centres undefined)
Cytochrome P450 2C19
  AC50: 11.2 µM (inconclusive)
fMet-Leu-Phe receptor
  Ki: 19.7 µM (inactive)

## COc1ccc(CCNC(=O)COC(=O)c2ccc([N+](=O)[O-])o2)cc1
Caspase-6
  AC50: 24.1 µM (active)

## COc1cccc(N2CC(=O)C(c3nc4ccccc4s3)=C2N)c1
Major prion protein
  IC50: 5.11 µM (active)
cells
  IC50: > 138 µM (inactive)

## Nc1ccc([N+](=O)[O-])cc1C(=O)NNC(=O)c1ccco1
Albumin
  IC50: > 94.1 µM (inactive)

## O=C(NCc1ccc2c(c1)OCO2)C(=O)NCC1OCCCN1S(=O)(=O)c1ccccc1 (centres undefined)
A549
  AC50: 27.9 µM (active)

## COCOCCn1cc(CN2CCS(=O)(=O)N(Cc3ccc(-c4ccc(Cl)c(Cl)c4)cc3)C(C(C)C)C2=O)nn1 (centres undefined)
[8]
  AC50: 1.35 µM (active)
[9]
  AC50: > 70 µM (inactive)
[10]
  AC50: 7.09 µM (active)
[11]
  AC50: 1.86 µM (active)

## Oc1ccc(/C=N/Nc2ncnc3c2ncn3Cc2ccccc2)cc1O
Large T antigen
  IC50: 3.87 µM (active)
[12]
  AC50: 2.19 µM (active)
[13]
  IC50: 23 µM (active)
Albumin
  IC50: > 94.1 µM (inactive)

## CC(C)(C)NC(=O)C(c1cccc2ccccc12)n1c(=O)c(-c2ccccc2)nc2ccccc21 (centres undefined)
A549
  AC50: 8.91 µM (active)

## C[C@@H]1CN([C@@H](C)CO)C(=O)Cc2cc(NS(=O)(=O)c3ccc(Cl)cc3)ccc2O[C@H]1CN(C)Cc1ccc(Cl)c(Cl)c1
Paired box protein Pax-8
  AC50: 4.26 µM (active)
[14]
  AC50: 38.5 µM (active)

## O=C(Cc1ccccn1)NCC[C@@H]1CC[C@@H](NC(=O)Nc2ccc(Cl)cc2)[C@H](CO)O1
[15]
  AbsAC35: 175.41 µM

## O=C1C(Nc2ccc(F)cc2F)=C(N2CCCCC2)C(=O)c2ccccc21
[16]
  AC50: 3.64 µM (active)
[17]
  AC50: 21.8 µM (active)
[18]
  AC50: 0.931 µM (active)

## CN1C(=O)c2cc(NC(=O)C3CC3)ccc2OC[C@H]2O[C@@H](CC(=O)O)CC[C@@H]21
Caspase-6
  AC50: 23.1 µM (active)

## C[C@H](CO)N1C[C@H](C)[C@H](CN(C)Cc2ccccc2)Oc2cc(/C=C/c3ccccc3)ccc2S1(=O)=O
[19]
  AC50: 34.5 µM (active)
[20]
  AC50: 22.7 µM (active)

## CCN1CCN(C2=C(Nc3ccc(OC)cc3)C(=O)c3ccccc3C2=O)CC1
[16]
  AC50: 12.2 µM (active)
[17]
  AC50: > 70 µM (inactive)
[18]
  AC50: 6.87 µM (active)
